According to US11000033B2, “Ketone or oxime compound, and herbicide” (NISSAN CHEMICAL CORPORATION, priority 2014, dated 2021):

Legend:
Type in all cases: in vivo
Monochoria vaginalis = assay: Test Example 1: herbicidal activity, application before weed generation in submerged conditions (symbol C); conditions: application herbicide amount 320 g/ha
Outline: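 Steps: alluvial soil flooded to 4 cm; weed seeds sown together; rice seedlings (2.5 leaf) transplanted; diluted emulsion applied to water surface the same day as sowing; plants grown at 25–30 °C in greenhouse; herbicidal effect rated on a 0–5 scale at 3 weeks.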

[1] = system: Echinochloa oryzacola Vasing.; assay: Test Example 2: herbicidal activity, application during weed generation in submerged conditions (symbol A); conditions: Table 23; application herbicide amount 320 g/ha; grade 0-5 by criteria of Test Example 1
Outline: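 Each pot contained alluvial soil under 4 cm of water with seeds of all three weeds sown together. Following growth at 25° C. to 30° C. to the one- to two-leaf stage, the floodwater received diluted emulsion at a predetermined amount; visual assessment followed at 3 weeks.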

Setaria viridis [2] = assay: Test Example 4: herbicidal effect by soil treatment (symbol G); conditions: for G (Setaria viridis) herbicidal effect grade / Herbicidal effect grade, G: Setaria viridis: application herbicide amount 320 g/ha; for G: Setaria viridis, herbicidal effect grade: 320 g/ha
Outline: (§1)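 Seeds were sown in sterilized diluvial soil, covered with about 1.5 cm of soil, and the soil surface was sprayed with a water-diluted emulsion of the compound at a predetermined rate. Plants grew in a greenhouse at 25° C. to 30° C.; effects were scored visually 3 weeks after application.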

Apera spica-venti = assay: Test Example 4: herbicidal effect by soil treatment (symbol L); conditions: for L (Apera spica-venti) herbicidal effect grade / Herbicidal effect grade, L: Apera spica-venti: application herbicide amount 320 g/ha; for L: Apera spica-venti, herbicidal effect grade: 320 g/ha
Outline: as §1

Amaranthus retroflexus = assay: Test Example 4: herbicidal effect by soil treatment (symbol N); conditions: for N (Amaranthus retroflexus) herbicidal effect grade / Herbicidal effect grade, N: Amaranthus retroflexus: application herbicide amount 320 g/ha; for N: Amaranthus retroflexus, herbicidal effect grade: 320 g/ha
Outline: as §1

Stellaria media = assay: Test Example 4: herbicidal effect by soil treatment (symbol P); conditions: for P (Stellaria media) herbicidal effect grade / Herbicidal effect grade, P: Stellaria media: application herbicide amount 320 g/ha; for P: Stellaria media, herbicidal effect grade: 320 g/ha
Outline: as §1

Veronica persica = assay: Test Example 4: herbicidal effect by soil treatment (symbol R); conditions: for R (Veronica persica) herbicidal effect grade / Herbicidal effect grade, R: Veronica persica: application herbicide amount 320 g/ha; for R: Veronica persica, herbicidal effect grade: 320 g/ha
Outline: as §1

Setaria viridis [3] = assay: Test Example 5: herbicidal effect by foliage application, plastic box (symbol G); conditions: 320 g/ha, 3 weeks after application
Outline: (§2)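 Herbicide, formulated as an emulsion and diluted in water, is sprayed onto the aerial parts of 14-day seedlings. These were grown at 25° C. to 30° C. in sterilized diluvial soil; effects are graded after 3 weeks.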

Avena fatua = assay: Test Example 5: herbicidal effect by foliage application, plastic box (symbol I); conditions: 320 g/ha, 3 weeks after application
Outline: as §2

Chenopodium album = assay: Test Example 5: herbicidal effect by foliage application, plastic box (symbol O); conditions: 320 g/ha, 3 weeks after application
Outline: as §2

rice plant = assay: Test Example 5: effect on crop by foliage application, plastic box (symbol b); conditions: 320 g/ha, 3 weeks after application
Outline: (§3)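 A greenhouse held between 25° C. and 30° C. was used to grow plants sown spot-wise, beneath ~1.5 cm of soil, in boxes of sterilized diluvial soil.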

beet = assay: Test Example 5: effect on crop by foliage application, plastic box (symbol f); conditions: 320 g/ha, 3 weeks after application
Outline: as §3

CON=C(C)CC1CC(OC(=O)C(C)(C)Oc2cccc(Cl)c2)=C(c2c(C)cc(C)cc2C)C1=O (stereo not drawn) [1-065]
Herbicidal effect grade, C: Monochoria vaginalis (Monochoria vaginalis): 0 (Herbicidal ratio of 5% or lower (almost no effect)) | Herbicidal effect grade, A: Echinochloa oryzacola Vasing. [1]: 4 (Herbicidal ratio of 70% or higher and lower than 90%) | G (Setaria viridis) herbicidal effect grade (Setaria viridis [2]): 5 (Herbicidal ratio of 90% or more (almost completely withered)) | L (Apera spica-venti) herbicidal effect grade (Apera spica-venti): 5 (Herbicidal ratio of 90% or more (almost completely withered)) | N (Amaranthus retroflexus) herbicidal effect grade (Amaranthus retroflexus): 5 (Herbicidal ratio of 90% or more (almost completely withered)) | P (Stellaria media) herbicidal effect grade (Stellaria media): 0 (Herbicidal ratio of 5% or lower (almost no effect)) | R (Veronica persica) herbicidal effect grade (Veronica persica): 0 (Herbicidal ratio of 5% or lower (almost no effect)) | G: Setaria viridis, herbicidal effect grade (Setaria viridis [3]): 5 (Herbicidal ratio of 90% or more (almost completely withered)) | I: Avena fatua, herbicidal effect grade (Avena fatua): 5 (Herbicidal ratio of 90% or more (almost completely withered)) | O: Chenopodium album, herbicidal effect grade (Chenopodium album): 2 (Herbicidal ratio of 20% or higher and lower than 40%) | b: directly sowed rice plant, effect on crop grade (rice plant): 5 (Herbicidal ratio of 90% or more (almost completely withered)) | f: beet, effect on crop grade (beet): 0 (Herbicidal ratio of 5% or lower (almost no effect))

CON=C(C)CC1CC(OC(=O)COc2ccc(OC)cc2)=C(c2c(C)cc(C)cc2C)C1=O (stereo not drawn) [1-069]
Herbicidal effect grade, C: Monochoria vaginalis (Monochoria vaginalis): 2 (Herbicidal ratio of 20% or higher and lower than 40%) | Herbicidal effect grade, A: Echinochloa oryzacola Vasing. [1]: 4 (Herbicidal ratio of 70% or higher and lower than 90%) | G (Setaria viridis) herbicidal effect grade (Setaria viridis [2]): 4 (Herbicidal ratio of 70% or higher and lower than 90%) | L (Apera spica-venti) herbicidal effect grade (Apera spica-venti): 5 (Herbicidal ratio of 90% or more (almost completely withered)) | N (Amaranthus retroflexus) herbicidal effect grade (Amaranthus retroflexus): 4 (Herbicidal ratio of 70% or higher and lower than 90%) | P (Stellaria media) herbicidal effect grade (Stellaria media): 0 (Herbicidal ratio of 5% or lower (almost no effect)) | R (Veronica persica) herbicidal effect grade (Veronica persica): 0 (Herbicidal ratio of 5% or lower (almost no effect)) | G: Setaria viridis, herbicidal effect grade (Setaria viridis [3]): 5 (Herbicidal ratio of 90% or more (almost completely withered)) | I: Avena fatua, herbicidal effect grade (Avena fatua): 5 (Herbicidal ratio of 90% or more (almost completely withered)) | O: Chenopodium album, herbicidal effect grade (Chenopodium album): 2 (Herbicidal ratio of 20% or higher and lower than 40%) | b: directly sowed rice plant, effect on crop grade (rice plant): 5 (Herbicidal ratio of 90% or more (almost completely withered)) | f: beet, effect on crop grade (beet): 1 (Herbicidal ratio of 5% or higher and lower than 20%)

CON=C(C)CC1CC(OC(=O)COc2ccc(C(C)=O)cc2)=C(c2c(C)cc(C)cc2C)C1=O (stereo not drawn) [1-080]
Herbicidal effect grade, C: Monochoria vaginalis (Monochoria vaginalis): 3 (Herbicidal ratio of 40% or higher and lower than 70%) | Herbicidal effect grade, A: Echinochloa oryzacola Vasing. [1]: 4 (Herbicidal ratio of 70% or higher and lower than 90%) | G: Setaria viridis, herbicidal effect grade (Setaria viridis [2]): 5 (Herbicidal ratio of 90% or more (almost completely withered)) | L: Apera spica-venti, herbicidal effect grade (Apera spica-venti): 5 (Herbicidal ratio of 90% or more (almost completely withered)) | N: Amaranthus retroflexus, herbicidal effect grade (Amaranthus retroflexus): 5 (Herbicidal ratio of 90% or more (almost completely withered)) | P: Stellaria media, herbicidal effect grade (Stellaria media): 0 (Herbicidal ratio of 5% or lower (almost no effect)) | R: Veronica persica, herbicidal effect grade (Veronica persica): 0 (Herbicidal ratio of 5% or lower (almost no effect)) | G: Setaria viridis, herbicidal effect (criteria 0-5) (Setaria viridis [3]): 5 (Herbicidal ratio of 90% or more (almost completely withered)) | I: Avena fatua, herbicidal effect (criteria 0-5) (Avena fatua): 5 (Herbicidal ratio of 90% or more (almost completely withered)) | O: Chenopodium album, herbicidal effect (criteria 0-5) (Chenopodium album): 3 (Herbicidal ratio of 40% or higher and lower than 70%) | b: directly sowed rice plant, effect on crop (criteria 0-5) (rice plant): 5 (Herbicidal ratio of 90% or more (almost completely withered)) | f: beet, effect on crop (criteria 0-5) (beet): 0 (Herbicidal ratio of 5% or lower (almost no effect))

CON=C(C)CC1CC(OC(=O)COc2ccc(I)cc2)=C(c2c(C)cc(C)cc2C)C1=O (stereo not drawn) [1-082]
Herbicidal effect grade, C: Monochoria vaginalis (Monochoria vaginalis): 2 (Herbicidal ratio of 20% or higher and lower than 40%) | Herbicidal effect grade, A: Echinochloa oryzacola Vasing. [1]: 5 (Herbicidal ratio of 90% or more (almost completely withered)) | G: Setaria viridis, herbicidal effect grade (Setaria viridis [2]): 5 (Herbicidal ratio of 90% or more (almost completely withered)) | L: Apera spica-venti, herbicidal effect grade (Apera spica-venti): 5 (Herbicidal ratio of 90% or more (almost completely withered)) | N: Amaranthus retroflexus, herbicidal effect grade (Amaranthus retroflexus): 5 (Herbicidal ratio of 90% or more (almost completely withered)) | P: Stellaria media, herbicidal effect grade (Stellaria media): 0 (Herbicidal ratio of 5% or lower (almost no effect)) | R: Veronica persica, herbicidal effect grade (Veronica persica): 0 (Herbicidal ratio of 5% or lower (almost no effect)) | G: Setaria viridis, herbicidal effect (criteria 0-5) (Setaria viridis [3]): 5 (Herbicidal ratio of 90% or more (almost completely withered)) | I: Avena fatua, herbicidal effect (criteria 0-5) (Avena fatua): 5 (Herbicidal ratio of 90% or more (almost completely withered)) | O: Chenopodium album, herbicidal effect (criteria 0-5) (Chenopodium album): 1 (Herbicidal ratio of 5% or higher and lower than 20%) | b: directly sowed rice plant, effect on crop (criteria 0-5) (rice plant): 5 (Herbicidal ratio of 90% or more (almost completely withered)) | f: beet, effect on crop (criteria 0-5) (beet): 0 (Herbicidal ratio of 5% or lower (almost no effect))

CON=C(C)CC1CC(OC(=O)COCC(F)(F)F)=C(c2c(C)cc(C)cc2C)C1=O (stereo not drawn) [1-092]
Herbicidal effect grade, C: Monochoria vaginalis (Monochoria vaginalis): 0 (Herbicidal ratio of 5% or lower (almost no effect)) | Herbicidal effect grade, A: Echinochloa oryzacola Vasing. [1]: 5 (Herbicidal ratio of 90% or more (almost completely withered)) | G: Setaria viridis, herbicidal effect grade (Setaria viridis [2]): 5 (Herbicidal ratio of 90% or more (almost completely withered)) | L: Apera spica-venti, herbicidal effect grade (Apera spica-venti): 5 (Herbicidal ratio of 90% or more (almost completely withered)) | N: Amaranthus retroflexus, herbicidal effect grade (Amaranthus retroflexus): 3 (Herbicidal ratio of 40% or higher and lower than 70%) | P: Stellaria media, herbicidal effect grade (Stellaria media): 0 (Herbicidal ratio of 5% or lower (almost no effect)) | R: Veronica persica, herbicidal effect grade (Veronica persica): 0 (Herbicidal ratio of 5% or lower (almost no effect)) | G: Setaria viridis, herbicidal effect (criteria 0-5) (Setaria viridis [3]): 5 (Herbicidal ratio of 90% or more (almost completely withered)) | I: Avena fatua, herbicidal effect (criteria 0-5) (Avena fatua): 2 (Herbicidal ratio of 20% or higher and lower than 40%) | O: Chenopodium album, herbicidal effect (criteria 0-5) (Chenopodium album): 0 (Herbicidal ratio of 5% or lower (almost no effect)) | b: directly sowed rice plant, effect on crop (criteria 0-5) (rice plant): 5 (Herbicidal ratio of 90% or more (almost completely withered)) | f: beet, effect on crop (criteria 0-5) (beet): 0 (Herbicidal ratio of 5% or lower (almost no effect))

CON=C(CC1CC(O)=C(c2c(C)cc(Br)cc2C)C1=O)C(C)C (stereo not drawn) [9-001]
Herbicidal effect grade, C: Monochoria vaginalis (Monochoria vaginalis): 0 (Herbicidal ratio of 5% or lower (almost no effect)) | Herbicidal effect grade, A: Echinochloa oryzacola Vasing. [1]: 4 (Herbicidal ratio of 70% or higher and lower than 90%) | Herbicidal effect grade, G: Setaria viridis (Setaria viridis [2]): 4 (Herbicidal ratio of 70% or higher and lower than 90%) | Herbicidal effect grade, L: Apera spica-venti (Apera spica-venti): 4 (Herbicidal ratio of 70% or higher and lower than 90%) | Herbicidal effect grade, N: Amaranthus retroflexus (Amaranthus retroflexus): 1 (Herbicidal ratio of 5% or higher and lower than 20%) | Herbicidal effect grade, P: Stellaria media (Stellaria media): 0 (Herbicidal ratio of 5% or lower (almost no effect)) | Herbicidal effect grade, R: Veronica persica (Veronica persica): 0 (Herbicidal ratio of 5% or lower (almost no effect)) | G: Setaria viridis, herbicidal effect grade (Setaria viridis [3]): 4 (Herbicidal ratio of 70% or higher and lower than 90%) | I: Avena fatua, herbicidal effect grade (Avena fatua): 5 (Herbicidal ratio of 90% or more (almost completely withered)) | O: Chenopodium album, herbicidal effect grade (Chenopodium album): 0 (Herbicidal ratio of 5% or lower (almost no effect)) | b: directly sowed rice plant, effect on crop grade (rice plant): 3 (Herbicidal ratio of 40% or higher and lower than 70%) | f: beet, effect on crop grade (beet): 0 (Herbicidal ratio of 5% or lower (almost no effect))

CON=C(CC1CC(O)=C(c2c(C)cc(C#C[Si](C)(C)C)cc2C)C1=O)C(C)C (stereo not drawn) [9-005]
Herbicidal effect grade, C: Monochoria vaginalis (Monochoria vaginalis): 0 (Herbicidal ratio of 5% or lower (almost no effect)) | Herbicidal effect grade, A: Echinochloa oryzacola Vasing. [1]: 3 (Herbicidal ratio of 40% or higher and lower than 70%) | Herbicidal effect grade, G: Setaria viridis (Setaria viridis [2]): 0 (Herbicidal ratio of 5% or lower (almost no effect)) | Herbicidal effect grade, L: Apera spica-venti (Apera spica-venti): 1 (Herbicidal ratio of 5% or higher and lower than 20%) | Herbicidal effect grade, N: Amaranthus retroflexus (Amaranthus retroflexus): 0 (Herbicidal ratio of 5% or lower (almost no effect)) | Herbicidal effect grade, P: Stellaria media (Stellaria media): 0 (Herbicidal ratio of 5% or lower (almost no effect)) | Herbicidal effect grade, R: Veronica persica (Veronica persica): 0 (Herbicidal ratio of 5% or lower (almost no effect)) | G: Setaria viridis, herbicidal effect grade (Setaria viridis [3]): 4 (Herbicidal ratio of 70% or higher and lower than 90%) | I: Avena fatua, herbicidal effect grade (Avena fatua): 5 (Herbicidal ratio of 90% or more (almost completely withered)) | O: Chenopodium album, herbicidal effect grade (Chenopodium album): 0 (Herbicidal ratio of 5% or lower (almost no effect)) | b: directly sowed rice plant, effect on crop grade (rice plant): 4 (Herbicidal ratio of 70% or higher and lower than 90%) | f: beet, effect on crop grade (beet): 0 (Herbicidal ratio of 5% or lower (almost no effect))
